Measured values published in patent EP0289204B1, “Lithium salt-containing pharmaceutical compositions” (EFAMOL HOLDINGS PLC, priority 1987, dated 1988).
Read-outs that look alike come from different tables or passages of the source.

What was measured:
[1] = Procedure: Each 50 ml water contained 11.4 mg lithium. Each aqueous solution was then shaken with 250 ml of chloroform/methanol (2/l by volume). The chloroform/methanol fraction was then separated off and evaporated to dryness under a stream of nitrogen. The mass of dry extract from the chloroform/methanol phase was weighed and its lithium content determined by flame photometry. The lithium content of the aqueous phase was also measured by flame photometry. • (B) 1 g of pure gamma-linolenic acid was dissolved in 10 ml of chloroform/methanol (2/l by volume). The resulting solution was then thoroughly shaken with 50 ml distilled water. The chloroform/methanol phase was then separated off and evaporated to dryness in a stream of nitrogen and the mass of dry extract was weighed.
[2] = Partition of lithium between water and chloroform/methanol (experiment A), lithium determined by flame photometry; format: physicochemical; conditions: 50 ml distilled water shaken with 250 ml chloroform/methanol (2/l by volume); range of five repeats
Procedure: Each 50 ml water contained 11.4 mg lithium.

[3] = 1 g in 10 ml chloroform/methanol (2/l by volume) shaken with 50 ml distilled water, range of five repeats
[4] = fatty acid salt, taken as equivalent to the percentage of lithium (experiment A)

Compound | Percentage of total fatty acid/ fatty acid salt* in: Aqueous phase [1, 3] | Percentage of total fatty acid/ fatty acid salt* in: Chloroform/methanol phase [1, 3] | Percentage of total lithium in: Aqueous phase [2] | Percentage of total lithium in: Chloroform/methanol phase [2] | Percentage of total fatty acid/ fatty acid salt* in: Aqueous phase [1, 4] | Percentage of total fatty acid/ fatty acid salt* in: Chloroform/methanol phase [1, 4] | solubility (physchem; alcohol, organic solvent or mixture) | solubility (physchem; water)
CCCCC/C=C\C/C=C\C/C=C\CCCCC(=O)O [Gamma-linolenic acid, reference compound] | 2-9% | 91-98% | – | – | – | – | – | –
CCCCC/C=C\C/C=C\C/C=C\CCCCC(=O)[O-].[Li+] [Lithium gammalinolenate, Lithium gamma-linolenate] | – | – | 11-17% | 83-89% | 11-17% | 83-89% | > 30 mg/mL | > 30 mg/mL
[Cl-].[Li+] [Lithium chloride, reference compound] | – | – | – | 1-5% | – | – | – | –
